According to PubChem BioAssay AID330 (DTP/NCI, 2004):
Values joined by “and” are separate entries in the source; they are usually repeats but may differ in a detail not shown here. Equal entries are not always repeated. Toxic doses and inconclusive results are not listed.

System: P388 leukemia ip, CD2F1 mice, survival T/C
Experiment: NCI In Vivo Anticancer Drug Screen. Data for tumor model P388 Leukemia (intraperitoneal) in CD2F1 (CDF1) mice
Details: endpoint: median survival time, higher = longer survival
How it was run: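 Mice carrying the transplanted tumor received test compound or vehicle. Survival was recorded in each group, and the value is the treated-group measurement divided by that of the vehicle-treated control group.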

[1] = dose: 50.0 mg/kg/injection, schedule: Q01DX009 (ip), vehicle: saline with Tween-80
[2] = dose: 100.0 mg/kg/injection, schedule: Q01DX009 (ip), vehicle: saline with Tween-80
[3] = dose: 200.0 mg/kg/injection, schedule: Q01DX009 (ip), vehicle: saline with Tween-80
[4] = dose: 50.0 mg/kg/injection, schedule: Q01DX009 (ip), vehicle: Klucel (hydroxypropylcellulose) (HPC)
[5] = dose: 100.0 mg/kg/injection, schedule: Q01DX009 (ip), vehicle: Klucel (hydroxypropylcellulose) (HPC)
[6] = dose: 200.0 mg/kg/injection, schedule: Q01DX009 (ip), vehicle: Klucel (hydroxypropylcellulose) (HPC)
[7] = dose: 50.0 mg/kg/injection, schedule: Q01DX009 (ip), vehicle: saline
[8] = dose: 100.0 mg/kg/injection, schedule: Q01DX009 (ip), vehicle: saline
[9] = dose: 60.0 mg/kg/injection, schedule: Q01DX005 (ip), vehicle: saline with Tween-80
[10] = dose: 120.0 mg/kg/injection, schedule: Q01DX005 (ip), vehicle: saline with Tween-80
[11] = dose: 240.0 mg/kg/injection, schedule: Q01DX005 (ip), vehicle: saline with Tween-80

O=C1COC(c2ccccc2O)=NN1CCCl
T/C [1]: 103 % of control | T/C [2]: 103 % of control | T/C [3]: 110 % of control

Cc1ccc(S(=O)(=O)N2CC3CC(/C=C/c4ccnc5ccccc45)CC(C3)C2)cc1 (configuration not stated)
T/C (dose: 25.0 mg/kg/injection, schedule: Q01DX001 (ip), vehicle: suspension in saline): 96 % of control | T/C (dose: 50.0 mg/kg/injection, schedule: Q01DX001 (ip), vehicle: suspension in saline): 102 % of control | T/C (dose: 100.0 mg/kg/injection, schedule: Q01DX001 (ip), vehicle: suspension in saline): 95 % of control

O=C(O)c1ccccc1Cc1cccc2ccccc12
T/C (dose: 100.0 mg/kg/injection, schedule: Q04DX002 (ip), vehicle: Klucel (hydroxypropylcellulose) (HPC)): 91 % of control | T/C (dose: 200.0 mg/kg/injection, schedule: Q04DX002 (ip), vehicle: Klucel (hydroxypropylcellulose) (HPC)): 96 % of control | T/C (dose: 400.0 mg/kg/injection, schedule: Q04DX002 (ip), vehicle: Klucel (hydroxypropylcellulose) (HPC)): 99 % of control

Cc1ccccc1N1C(=O)OC(C)C1=O (configuration not stated)
T/C (dose: 100.0 mg/kg/injection, schedule: Q01DX001 (ip), vehicle: saline with Tween-80): 97 % of control | T/C (dose: 200.0 mg/kg/injection, schedule: Q01DX001 (ip), vehicle: saline with Tween-80): 109 % of control | T/C (dose: 400.0 mg/kg/injection, schedule: Q01DX001 (ip), vehicle: saline with Tween-80): 94 % of control

S=C(N\N=C/C(/C=C/c1ccccc1)=N\NC(=S)Nc1ccc(Cl)cc1)Nc1ccc(Cl)cc1
T/C (dose: 400.0 mg/kg/injection, schedule: Q01DX001 (ip), vehicle: Klucel (hydroxypropylcellulose) (HPC)): 88 % of control

C(#CP(C#Cc1ccccc1)C#Cc1ccccc1)c1ccccc1
T/C [1]: 103 % of control | T/C [2]: 92 % of control | T/C [3]: 94 % of control | T/C (dose: 400.0 mg/kg/injection, schedule: Q01DX009 (ip), vehicle: saline with Tween-80): 86 % of control

O=C1c2ccccc2C(=O)c2c(NCCN3CCCCC3)ccc(NCCN3CCCCC3)c21
T/C (dose: 4.0 mg/kg/injection, schedule: Q01DX009 (ip), vehicle: acid diluted with saline): 102 % of control | T/C (dose: 8.0 mg/kg/injection, schedule: Q01DX009 (ip), vehicle: acid diluted with saline): 100 % of control | T/C (dose: 12.5 mg/kg/injection, schedule: Q01DX009 (ip), vehicle: other): 98 % of control | T/C (dose: 16.0 mg/kg/injection, schedule: Q01DX009 (ip), vehicle: acid diluted with saline): 103 % of control | T/C (dose: 25.0 mg/kg/injection, schedule: Q01DX009 (ip), vehicle: other): 104 % of control | T/C (dose: 32.0 mg/kg/injection, schedule: Q01DX009 (ip), vehicle: acid diluted with saline): 101 % of control | T/C (dose: 50.0 mg/kg/injection, schedule: Q01DX009 (ip), vehicle: other): 104 % of control | T/C (dose: 64.0 mg/kg/injection, schedule: Q01DX009 (ip), vehicle: acid diluted with saline): 104 % of control | T/C (dose: 100.0 mg/kg/injection, schedule: Q01DX009 (ip), vehicle: other): 121 % of control

O=S(=O)(c1ccc(NC(=S)NC23CC4CC(CC(C4)C2)C3)cc1)N1CCCCC1
T/C [4]: 88 % of control | T/C [5]: 93 % of control | T/C [6]: 94 % of control

CCOC(=O)NC(Cc1cc(OC)c(OC)cc1Br)c1ccc(OC)c(OC)c1 (configuration not stated)
T/C (dose: 50.0 mg/kg/injection, schedule: Q01DX005 (ip), vehicle: saline with Tween-80): 89 % of control | T/C (dose: 100.0 mg/kg/injection, schedule: Q01DX005 (ip), vehicle: saline with Tween-80): 89 % of control | T/C (dose: 200.0 mg/kg/injection, schedule: Q01DX005 (ip), vehicle: saline with Tween-80): 100 % of control

Cn1cnc([N+](=O)[O-])c1[Se]c1ncnc2c1c(C#N)cn2C1OC(CO)C(O)C1O (configuration not stated)
T/C (dose: 12.5 mg/kg/injection, schedule: Q04DX003 (ip), vehicle: saline): 103 % of control | T/C (dose: 25.0 mg/kg/injection, schedule: Q04DX003 (ip), vehicle: saline): 116 % of control | T/C (dose: 50.0 mg/kg/injection, schedule: Q04DX003 (ip), vehicle: saline): 116 % of control

CCOC(=O)C(C#N)C1(c2ccccc2)CCCCC1 (configuration not stated)
T/C [1]: 112 % of control | T/C [2]: 101 % of control | T/C [3]: 101 % of control

Clc1ccccc1CSCc1c(CSCc2ccccc2Cl)c(CSCc2ccccc2Cl)c(CSCc2ccccc2Cl)c(CSCc2ccccc2Cl)c1CSCc1ccccc1Cl
T/C [1]: 102 % of control | T/C [2]: 100 % of control | T/C [3]: 100 % of control

COc1ccc(-c2c(O)c3cccnc3[nH]c2=O)cc1
T/C [7]: 102 % of control | T/C [8]: 104 % of control | T/C (dose: 200.0 mg/kg/injection, schedule: Q01DX009 (ip), vehicle: saline): 102 % of control

CC(C)(C)N=C(CCN1CCOCC1)Nc1ccccc1Cl
T/C [1]: 113 % of control | T/C [2]: 106 % of control | T/C [3]: 109 % of control

CCCCCCCOC(=O)c1cc2cc(C(CC)C(CC)c3ccc(O)cc3)ccc2oc1=O (configuration not stated)
T/C [9]: 105 % of control | T/C [10]: 92 % of control | T/C [11]: 95 % of control

Cc1cc(C)n(-c2nnc(-n3nc(C)cc3C)c3ccccc23)n1
T/C [7]: 94 % of control | T/C [8]: 87 % of control

N#C[C@@H]1C2C=CC(CC2)[C@H]1C#N
T/C (dose: 1.25 mg/kg/injection, schedule: Q01DX009 (ip), vehicle: saline with Tween-80): 100 % of control | T/C (dose: 1.25 mg/kg/injection, schedule: Q04DX003 (ip), vehicle: saline with Tween-80): 91 % of control | T/C (dose: 2.5 mg/kg/injection, schedule: Q01DX009 (ip), vehicle: saline with Tween-80): 112 % of control | T/C (dose: 2.5 mg/kg/injection, schedule: Q04DX003 (ip), vehicle: saline with Tween-80): 104 % of control | T/C (dose: 5.0 mg/kg/injection, schedule: Q04DX003 (ip), vehicle: saline with Tween-80): 91 % of control

COc1ccc(C2C3=C(CCCC3=O)Oc3cc4c(cc32)OCO4)c(OC)c1 (configuration not stated)
T/C [9]: 99 % of control | T/C [10]: 90 % of control | T/C [11]: 90 % of control

C[C](C)(C)[Ge]([O][Ge]([c]1ccccc1)[c]1ccccc1)([O][Ge]([c]1ccccc1)[c]1ccccc1)[C](C)(C)C
T/C (dose: 15.0 mg/kg/injection, schedule: Q01DX005 (ip), vehicle: saline with Tween-80): 103 % of control | T/C (dose: 30.0 mg/kg/injection, schedule: Q01DX005 (ip), vehicle: saline with Tween-80): 103 % of control | T/C [9]: 110 % of control and 117 % of control | T/C [10]: 117 % of control

N=C(N)c1ccc(N=Nc2c(O)ccc3cc(O)ccc23)cc1
T/C (dose: 3.12 mg/kg/injection, schedule: Q01DX005 (ip), vehicle: Klucel (hydroxypropylcellulose) (HPC)): 104 % of control | T/C (dose: 6.25 mg/kg/injection, schedule: Q01DX005 (ip), vehicle: Klucel (hydroxypropylcellulose) (HPC)): 101 % of control and 102 % of control | T/C (dose: 12.5 mg/kg/injection, schedule: Q01DX005 (ip), vehicle: Klucel (hydroxypropylcellulose) (HPC)): 116 % of control (2×) and 95 % of control

S=C(Nc1ccccc1)Nc1nccs1
T/C [1]: 108 % of control | T/C [2]: 107 % of control | T/C [3]: 117 % of control

CSc1nc(=O)c(=O)nc(Nc2ccccc2)n1-c1ccccc1
T/C [1]: 86 % of control | T/C [3]: 87 % of control

c1ccc2[nH]c(N=Nc3cccc4c(N=Nc5cc6ccccc6[nH]5)cccc34)cc2c1
T/C [1]: 100 % of control | T/C [2]: 100 % of control | T/C [3]: 103 % of control

CNC(=O)Nc1nccs1
T/C [1]: 105 % of control | T/C [2]: 96 % of control | T/C [3]: 97 % of control

COc1c(O)c(O)cc2c1-c1ccc(OC)c(=O)cc1C(NC(C)=O)CC2 (configuration not stated)
T/C (dose: 1.25 mg/kg/injection, schedule: Q01DX009 (ip), vehicle: water): 114 % of control | T/C (dose: 2.5 mg/kg/injection, schedule: Q01DX009 (ip), vehicle: water): 117 % of control | T/C (dose: 20.0 mg/kg/injection, schedule: Q01DX009 (ip), vehicle: water): 166 % of control and 177 % of control | T/C (dose: 40.0 mg/kg/injection, schedule: Q01DX009 (ip), vehicle: water): 204 % of control

COc1cc(CCNC(C)=O)c(NC=O)cc1OC
T/C (dose: 100.0 mg/kg/injection, schedule: Q04DX002 (ip), vehicle: saline): 108 % of control | T/C (dose: 200.0 mg/kg/injection, schedule: Q04DX002 (ip), vehicle: saline): 105 % of control | T/C (dose: 400.0 mg/kg/injection, schedule: Q04DX002 (ip), vehicle: saline): 99 % of control

CCCNc1nc2c(s1)c1c(O)c3c(O)c(C)c4c(c32)C(=O)C(C)(O/C=C\C(OC)C(C)C(OC(C)=O)C(C)C(O)C(C)C(O)C(C)/C=C/C=C(/C)C(=O)N1)O4 (configuration not stated)
T/C (dose: 25.0 mg/kg/injection, schedule: Q01DX009 (ip), vehicle: Klucel (hydroxypropylcellulose) (HPC)): 92 % of control | T/C [4]: 107 % of control | T/C [5]: 99 % of control | T/C [6]: 100 % of control

O=c1[nH]cnc2ncnn12
T/C (dose: 25.0 mg/kg/injection, schedule: Q01DX009 (ip), vehicle: suspension in saline): 97 % of control | T/C (dose: 50.0 mg/kg/injection, schedule: Q01DX009 (ip), vehicle: suspension in saline): 93 % of control | T/C (dose: 200.0 mg/kg/injection, schedule: Q01DX009 (ip), vehicle: suspension in saline): 90 % of control
